Drawing on patent publication US20240262819A1, “NOVEL COMPOUNDS HAVING INHIBITORY ACTIVITY AGAINST GLUCOSYLCERAMIDE SYNTHASE OR PHARMACEUTICALLY ACCEPTABLE SALT THEREOF, PROCESSES FOR PREPARING THE SAME, AND PHARMACEUTICAL COMPOSITIONS COMPRISING THE SAME” (YUHAN CORPORATION, priority 2021, published 2024), this text covers IC50, Kp and concentration for 28 molecules.

Where “and” joins values, the source holds several entries; their conditions need not be identical. Equal entries are not always repeated.

The first series concerns GM1 production in Jurkat cells. As to the kind of experiment: cells. It counts as cell-based. The settings on record: Homo sapiens, Jurkat, 72 h.
Regarding `CC(C)Cc1cccc(-c2cc3c(cc2F)[C@H](NC(=O)O[C@@H]2CN4CCC2CC4)C(C)(C)C3)c1` [Example 74, (S)-quinuclidin-3-yl((R)-6-fluoro-5-(3-isobutylphenyl)-2,2-dimethyl-2,3-dihydro-1H-inden-1-yl)carbamate], the IC50 came to 19.4 nM. Molecule `CC(C)c1cccc(-c2ccc3c(c2)CC(C)(C)[C@H]3NC(=O)O[C@@H]2CN3CCC2CC3)c1` [Example 2, (S)-quinuclidin-3-yl((R)-5-(3-isopropylphenyl)-2,2-dimethyl-2,3-dihydro-1H-inden-1-yl)carbamate] came in with an IC50 of 3.75 nM. On the same count and under the same terms, for `CC(C)(C)c1ccc(-c2ccc3c(c2)CC(C)(C)[C@H]3NC(=O)O[C@@H]2CN3CCC2CC3)cc1` [Example 6, (S)-quinuclidin-3-yl((R)-5-(4-(tert-butyl)phenyl)-2,2-dimethyl-2,3-dihydro-1H-inden-1-yl)carbamate] the value was 9.97 nM; for `CCOc1c(C)cc(-c2ccc3c(c2)CC(C)(C)[C@H]3NC(=O)O[C@@H]2CN3CCC2CC3)cc1C` [Example 22, (S)-quinuclidin-3-yl((R)-5-(4-ethoxy-3,5-dimethylphenyl)-2,2-dimethyl-2,3-dihydro-1H-inden-1-yl)carbamate], 38.1 nM. Consider `CCOc1cccc(-c2cc3c(cc2F)[C@H](NC(=O)O[C@@H]2CN4CCC2CC4)C(C)(C)C3)c1` [Example 76, (S)-quinuclidin-3-yl((R)-5-(3-ethoxyphenyl)-6-fluoro-2,2-dimethyl-2,3-dihydro-1H-inden-1-yl)carbamate], for which the IC50 is 33.4 nM. Take `CCCOc1cccc(-c2cc3c(cc2F)[C@H](NC(=O)O[C@@H]2CN4CCC2CC4)C(C)(C)C3)c1` [Example 77, (S)-quinuclidin-3-yl((R)-6-fluoro-2,2-dimethyl-5-(3-propoxyphenyl)-2,3-dihydro-1H-inden-1-yl)carbamate]: half-maximal inhibition (IC50) was put at 23.7 nM. In the case of `CCCCOc1cccc(-c2cc3c(cc2F)[C@H](NC(=O)O[C@@H]2CN4CCC2CC4)C(C)(C)C3)c1` [Example 79, (S)-quinuclidin-3-yl((R)-5-(3-butoxyphenyl)-6-fluoro-2,2-dimethyl-2,3-dihydro-1H-inden-1-yl)carbamate], the IC50 was found to be 6 nM.

For the molecule `CC(C)COc1cccc(-c2cc3c(cc2F)[C@H](NC(=O)O[C@@H]2CN4CCC2CC4)C(C)(C)C3)c1` [Example 78, (S)-quinuclidin-3-yl((R)-6-fluoro-5-(3-isobutoxyphenyl)-2,2-dimethyl-2,3-dihydro-1H-inden-1-yl)carbamate], the IC50 came out at 17.6 nM.

The molecule `CC(C)Cc1ccc(-c2ccc3c(c2)CC(C)(C)[C@H]3NC(=O)O[C@@H]2CN3CCC2CC3)cc1` [Example 5, (S)-quinuclidin-3-yl((R)-5-(4-isobutylphenyl)-2,2-dimethyl-2,3-dihydro-1H-inden-1-yl)carbamate] had an IC50 of 4.14 nM. Still for that read-out and setting: for `CCCc1ccc(-c2ccc3c(c2)CC(C)(C)[C@H]3NC(=O)O[C@@H]2CN3CCC2CC3)cc1` [Example 4, (S)-quinuclidin-3-yl((R)-2,2-dimethyl-5-(4-propylphenyl)-2,3-dihydro-1H-inden-1-yl)carbamate] the value was 3.74 nM; for `CC(C)COc1ccc(-c2ccc3c(c2)CC(C)(C)[C@H]3NC(=O)O[C@@H]2CN3CCC2CC3)cc1` [Example 8, (S)-quinuclidin-3-yl((R)-5-(4-isobutoxyphenyl)-2,2-dimethyl-2,3-dihydro-1H-inden-1-yl)carbamate], 1.09 nM; for `CCc1cccc(-c2ccc3c(c2)CC(C)(C)[C@H]3NC(=O)O[C@@H]2CN3CCC2CC3)c1` [Example 1, (S)-quinuclidin-3-yl((R)-5-(3-ethylphenyl)-2,2-dimethyl-2,3-dihydro-1H-inden-1-yl)carbamate], 4.53 nM. The molecule `CCCCc1ccc(-c2ccc3c(c2)CC(C)(C)[C@H]3NC(=O)O[C@@H]2CN3CCC2CC3)cc1` [Example 3, (S)-quinuclidin-3-yl((R)-5-(4-butylphenyl)-2,2-dimethyl-2,3-dihydro-1H-inden-1-yl)carbamate] gave an IC50 of 1.24 nM. In turn, `CCc1cccc(-c2cc3c(cc2F)[C@H](NC(=O)O[C@@H]2CN4CCC2CC4)C(C)(C)C3)c1` [Example 71, (S)-quinuclidin-3-yl((R)-5-(3-ethylphenyl)-6-fluoro-2,2-dimethyl-2,3-dihydro-1H-inden-1-yl)carbamate] showed an IC50 of 12.7 nM. `CCOc1ccc(-c2ccc3c(c2)CC(C)(C)[C@H]3NC(=O)O[C@@H]2CN3CCC2CC3)cc1F` [Example 19, (S)-quinuclidin-3-yl((R)-5-(4-ethoxy-3-fluorophenyl)-2,2-dimethyl-2,3-dihydro-1H-inden-1-yl)carbamate] returned an IC50 of 56 nM.

Molecule `CC(C)Oc1cccc(-c2cc3c(cc2F)[C@H](NC(=O)O[C@@H]2CN4CCC2CC4)C(C)(C)C3)c1` [Example 81, (S)-quinuclidin-3-yl((R)-6-fluoro-5-(3-isopropoxyphenyl)-2,2-dimethyl-2,3-dihydro-1H-inden-1-yl)carbamate] gave an IC50 of 18.7 nM. Molecule `COc1cccc(-c2cc3c(cc2F)[C@H](NC(=O)O[C@@H]2CN4CCC2CC4)C(C)(C)C3)c1` [Example 75, (S)-quinuclidin-3-yl((R)-6-fluoro-5-(3-methoxyphenyl)-2,2-dimethyl-2,3-dihydro-1H-inden-1-yl)carbamate] returned an IC50 of 14.8 nM. `CCCCOc1ccc(-c2cc3c(cc2F)[C@H](NC(=O)O[C@@H]2CN4CCC2CC4)C(C)(C)C3)cc1` [Example 70, (S)-quinuclidin-3-yl((R)-5-(4-butoxyphenyl)-6-fluoro-2,2-dimethyl-2,3-dihydro-1H-inden-1-yl)carbamate] had an IC50 of 0.6 nM. `CCc1ccc(-c2cc3c(cc2F)[C@H](NC(=O)O[C@@H]2CN4CCC2CC4)C(C)(C)C3)cc1` [Example 58, (S)-quinuclidin-3-yl((R)-5-(4-ethylphenyl)-6-fluoro-2,2-dimethyl-2,3-dihydro-1H-inden-1-yl)carbamate] displayed an IC50 of 5.74 nM. Take `CCOc1ccc(-c2cc3c(cc2F)[C@H](NC(=O)O[C@@H]2CN4CCC2CC4)C(C)(C)C3)cc1` [Example 56, (S)-quinuclidin-3-yl((R)-5-(4-ethoxyphenyl)-6-fluoro-2,2-dimethyl-2,3-dihydro-1H-inden-1-yl)carbamate]: half-maximal inhibition (IC50) required 10.7 nM.

`CCCCc1ccc(-c2cc3c(cc2F)[C@H](NC(=O)O[C@@H]2CN4CCC2CC4)C(C)(C)C3)cc1` [Example 60, (S)-quinuclidin-3-yl((R)-5-(4-butylphenyl)-6-fluoro-2,2-dimethyl-2,3-dihydro-1H-inden-1-yl)carbamate] had a half-maximal inhibitory concentration (IC50) of 1 nM. For the molecule `CCOc1ccc(-c2ccc3c(c2)CC(C)(C)[C@H]3NC(=O)O[C@@H]2CN3CCC2CC3)cc1` [Example 7, (S)-quinuclidin-3-yl((R)-5-(4-ethoxyphenyl)-2,2-dimethyl-2,3-dihydro-1H-inden-1-yl)carbamate], inhibition was half-maximal at 13.7 nM (IC50). In the case of `CC(C)c1cccc(-c2cc3c(cc2F)[C@H](NC(=O)O[C@@H]2CN4CCC2CC4)C(C)(C)C3)c1` [Example 73, (S)-quinuclidin-3-yl((R)-6-fluoro-5-(3-isopropylphenyl)-2,2-dimethyl-2,3-dihydro-1H-inden-1-yl)carbamate], the IC50 was determined as 10.8 nM. With `CCOc1c(C)cc(-c2cc3c(cc2F)[C@H](NC(=O)O[C@@H]2CN4CCC2CC4)C(C)(C)C3)cc1C` [Example 80, (S)-quinuclidin-3-yl((R)-5-(4-ethoxy-3,5-dimethylphenyl)-6-fluoro-2,2-dimethyl-2,3-dihydro-1H-inden-1-yl)carbamate], the IC50 was 51 nM. Take `CC1(C)Cc2cc(-c3ccc(OCC4CC4)nc3)ccc2[C@@H]1NC(=O)O[C@@H]1CN2CCC1CC2` [Example 13, (S)-quinuclidin-3-yl((R)-5-(6-(cyclopropylmethoxy)pyridin-3-yl)-2,2-dimethyl-2,3-dihydro-1H-inden-1-yl)carbamate]: 4.15 nM corresponded to half-maximal inhibition (IC50). Still for that read-out and setting: for `CCCCOc1ccc(-c2ccc3c(c2)CC(C)(C)[C@H]3NC(=O)O[C@@H]2CN3CCC2CC3)cc1Cl` [Example 17, (S)-quinuclidin-3-yl((R)-5-(4-butoxy-3-chlorophenyl)-2,2-dimethyl-2,3-dihydro-1H-inden-1-yl)carbamate] the value was 20.6 nM.

The series is the same for the next values; noted with them: read-out: IC50.
As for `COc1ccc(-c2ccc3c(c2)CC(C)(C)[C@H]3NC(=O)O[C@@H]2CN3CCC2CC3)c(F)c1` [Example 12, (S)-quinuclidin-3-yl((R)-5-(2-fluoro-4-methoxyphenyl)-2,2-dimethyl-2,3-dihydro-1H-inden-1-yl) carbamate], the IC50 amounted to 5.94 nM.

Test system in a further series: not listed separately
Description: Evaluation of blood-brain barrier (BBB) permeability through oral administration. Type of series: in vivo, mice. To be noted: mouse, in vivo, po, 30 mg/kg. As to the method:
The blood-brain barrier (BBB) permeability was evaluated in mice, with respect to the compounds according to the present invention and the control (ibiglustat). Each compound of the present invention and the control were suspended in 0.5% methyl cellulose containing 0.2% Tween 80 and then orally administered to mice at a dose of 10 or 30 mg/10 ml/kg. After the whole blood was collected from the heart of each mouse at the time of 4 hours after the administration, it was placed in a lithium heparin tube and immediately centrifuged to obtain the plasma. After the exsanguination was carried out through abdominal vena cava incision, the forebrain was taken by dissection of the head. Both of the forebrain and the plasma were stored in a −80° C. freezer until the analysis of drug concentrations therein. For the analysis of drug concentrations therein, the forebrain was immersed in distilled water and then homogenized with a homogenizer to obtain a homogenate. Each plasma and homogenate was treated with acetonitrile to precipitate proteins, vortexed for 15 seconds, and then centrifuged (12700 rpm, 10 min, 4° C.). The obtained supernatant was diluted with an 80% aqueous solution of acetonitrile containing 0.1% formic acid and then analyzed with an LC-MS/MS instrument. LC-MS/MS analysis was carried out with a reversed-phase column, using distilled water containing 0.1% formic acid and acetonitrile as mobile phases. Each eluted material was detected through a mass spectrometer to calculate the drug concentrations thereof. The brain-plasma drug ratio (B/P ratio) was calculated from the drug concentrations in each tissue to evaluate the blood-brain barrier (BBB) permeability.
Regarding `CC(C)(NC(=O)O[C@@H]1CN2CCC1CC2)c1csc(-c2ccc(F)cc2)n1` [Control, Ibiglustat, reference compound], the Kp at 4 h was determined as 0.501; the concentration at 4 h is 2640 ng/mL and 1320 ng/g.

Still in this series, the particulars now being: mouse, in vivo; mice, oral, dose 30 mg/kg, 4 hr; read-out: Mean brain-plasma drug ratio at 4 hr.
With `CCOc1c(C)cc(-c2ccc3c(c2)CC(C)(C)[C@H]3NC(=O)O[C@@H]2CN3CCC2CC3)cc1C` [Example 22, (S)-quinuclidin-3-yl((R)-5-(4-ethoxy-3,5-dimethylphenyl)-2,2-dimethyl-2,3-dihydro-1H-inden-1-yl)carbamate], the Kp at 4 h amounted to 3.37.

The series is the same for the next values; noted with them: mouse, in vivo; mice, oral, dose 30 mg/kg, 4 hr; read-out: Mean drug concentrations in brain tissue at 4 hr.
With `CCOc1c(C)cc(-c2ccc3c(c2)CC(C)(C)[C@H]3NC(=O)O[C@@H]2CN3CCC2CC3)cc1C` [Example 22, (S)-quinuclidin-3-yl((R)-5-(4-ethoxy-3,5-dimethylphenyl)-2,2-dimethyl-2,3-dihydro-1H-inden-1-yl)carbamate], the concentration at 4 h stood at 4400 ng/g.

The series is the same for the next values; noted with them: mouse, in vivo; mice, oral, dose 30 mg/kg, 4 hr; read-out: Mean drug concentrations in plasma at 4 hr.
Regarding `CCOc1c(C)cc(-c2ccc3c(c2)CC(C)(C)[C@H]3NC(=O)O[C@@H]2CN3CCC2CC3)cc1C` [Example 22, (S)-quinuclidin-3-yl((R)-5-(4-ethoxy-3,5-dimethylphenyl)-2,2-dimethyl-2,3-dihydro-1H-inden-1-yl)carbamate], the concentration at 4 h was 1320 ng/mL.
